The record followed here is patent US20050197350A1, “Novel quinoline, tetrahydroquinazoline, and pyrimidine derivatives and methods of treatment related to the use thereof” (TAISHO PHARMACEUTICAL CO., LTD., priority 2003, published 2005).

This experiment has as its system MCH receptors. Put plainly: MCH receptor activity class (method not given).
Setting [1] is: activity class per percent of control at 10^-7 M or IC50.
Where [2] appears, read: class by percent of control at 10^-7 M or IC50.
Setting [3] is: MCH receptor, class by percent of control at 10^-7 M or IC50.
Setting [4] is: activity class 1-3: percent of control at 10^-7 M or IC50.
Setting [5] is: class 1-3 by percent of control at 10^-7 M or IC50.
The mark [6] stands for this setting: MCH receptor activity class 1-3 (percent of control at 10^-7 M or IC50).

In the case of `CC(C(=O)N[C@H]1CC[C@@H](Nc2nc3c(c(N(C)C)n2)CCCC3)CC1)c1ccc(N2Cc3ccccc3C2=O)cc1` (stereo partly drawn) [compound 985, N-(cis-4-{[4-(dimethylamino)-5,6,7,8-tetrahydroquinazolin-2-yl]amino}cyclohexyl)-2-[4-(1-oxo-1,3-dihydro-2H-isoindol-2-yl)pheny]propanamide], the class under setting [1] is 2 (Class 2: The value of percent of control at 10^−7 M was from 40% to 60% or the value of IC′50 was from 50 nM to 200 nM.).
Turning to `Cc1cc(C)c(NC(=S)N[C@H]2CC[C@@H](Nc3nc4c(c(N(C)C)n3)CCCC4)CC2)c(C)c1` [compound 1755], under setting [2], the class is 1 (Class 1: The value of percent of control at 10^−7 M was less than 40% or the value of IC50 was less than 50 nM.).
On the same count and under the same terms, in the case of `CCc1cccc(C(C)C)c1NC(=S)N[C@H]1CC[C@@H](Nc2cc(N(C)C)c3ccccc3n2)CC1` [compound 2172] it was 3 (Class 3 The value of percent of control at 10^−7 M was more than 60% or the value of IC50 was more than 200 nM.).
As to `CN(C)c1cc(N[C@H]2CC[C@@H](NC(=O)c3ccc(Cl)cc3)CC2)nc2ccccc12` [compound 25], the class under setting [3] is 1 (Class 1: The value of percent of control at 10^−7 M was less than 40% or the value of IC50 was less than 50 nM.).
As for `CCOC(=O)NC[C@H]1CC[C@@H](Nc2nc3c(c(N(C)C)n2)CCCC3)CC1` [compound 1607], the class under setting [4] is given as 3 (Class 3 The value of percent of control at 10^−7 M was more than 60% or the value of IC50 was more than 200 nM.).
In the case of `CSc1sc(C(=O)N[C@H]2CC[C@@H](Nc3cc(N(C)C)c4ccccc4n3)CC2)c(Cl)c1S(=O)(=O)C(C)C` [compound 765], under setting [2], the class was 3 (Class 3 The value of percent of control at 10^−7 M was more than 60% or the value of IC50 was more than 200 nM.).
In the case of `CN(C)c1nc(N[C@H]2CC[C@@H](NC(=O)c3cccc(Br)c3)CC2)nc2c1CCCC2` [compound 457], the class under setting [5] is reported as 1 (Class 1: The value of percent of control at 10^−7 M was less than 40% or the value of IC50 was less than 50 nM.).
In the case of `Cc1cccc(C(C)C)c1NC(=O)NC[C@H]1CC[C@@H](Nc2nc3c(c(N(C)C)n2)CCCC3)CC1` [compound 2471], under setting [6], the class was 2 (Class 2: The value of percent of control at 10^−7 M was from 40% to 60% or the value of IC′50 was from 50 nM to 200 nM.).
In the case of `CN(C)c1ccnc(N[C@H]2CC[C@@H](NC(=O)Nc3ccc4c(c3)OCCO4)CC2)n1` [compound 2251], under setting [2], the class is 3 (Class 3 The value of percent of control at 10^−7 M was more than 60% or the value of IC50 was more than 200 nM.).
Regarding `COc1ccc(NC(=O)N[C@H]2CC[C@@H](Nc3cc(N(C)C)c4ccccc4n3)CC2)c(OC)c1` [compound 2141], the class under setting [2] is given as 3 (Class 3 The value of percent of control at 10^−7 M was more than 60% or the value of IC50 was more than 200 nM.).
Regarding `CN(C)c1cc(N[C@H]2CC[C@@H](NC(=O)C(c3ccccc3)c3ccccc3)CC2)nc2ccccc12` [compound 32, N-(cis-4-{[4-(dimethylamino)quinolin-2-yl]amino}cyclohexyl)-2,2-diphenylacetamide], the class under setting [3] is reported as 2 (Class 2: The value of percent of control at 10^−7 M was from 40% to 60% or the value of IC′50 was from 50 nM to 200 nM.).
With `COCCOC(=O)N[C@H]1CC[C@@H](Nc2nccc(N(C)C)n2)CC1` [compound 1625], the class under setting [4] was 3 (Class 3 The value of percent of control at 10^−7 M was more than 60% or the value of IC50 was more than 200 nM.).
For `CN(C)c1ccnc(N[C@H]2CC[C@@H](NC(=O)Oc3ccccc3)CC2)n1` [compound 1632], under setting [4], the class is 3 (Class 3 The value of percent of control at 10^−7 M was more than 60% or the value of IC50 was more than 200 nM.).
Turning to `CN(C)c1nc(N[C@H]2CC[C@@H](CNC(=O)/C=C/c3cccc([N+](=O)[O-])c3)CC2)nc2c1CCCC2` [compound 1070], under setting [1], the class is on record as 2 (Class 2: The value of percent of control at 10^−7 M was from 40% to 60% or the value of IC′50 was from 50 nM to 200 nM.).
For the molecule `Cc1onc(-c2ccccc2)c1NC(=S)N[C@H]1CC[C@@H](Nc2nccc(N(C)C)n2)CC1` [compound 2354], the class under setting [6] is listed as 3 (Class 3 The value of percent of control at 10^−7 M was more than 60% or the value of IC50 was more than 200 nM.).
As for `CN(C)c1ccnc(N[C@H]2CC[C@@H](NC(=O)c3cc(-c4ccccc4)nc4ccccc34)CC2)n1` [compound 896, N-(cis-4-{[4-(dimethylamino)pyrimidin-2-yl]amino}cyclohexyl)-2-phenylquinoline-4-carboxamide], the class under setting [2] is listed as 2 (Class 2: The value of percent of control at 10^−7 M was from 40% to 60% or the value of IC′50 was from 50 nM to 200 nM.).
In the case of `CN(C)c1ccnc(N[C@H]2CC[C@@H](CNC(=O)C(Cc3ccccc3)c3ccccc3)CC2)n1` (relative stereo) [compound 930, N-[(cis-4-{[4-(dimethylamino)pyrimidin-2-yl]amino}cyclohexyl)methyl]-2,3-diphenylpropanamide], the class under setting [2] is given as 2 (Class 2: The value of percent of control at 10^−7 M was from 40% to 60% or the value of IC′50 was from 50 nM to 200 nM.).
Take `CN(C)c1nc(N[C@H]2CC[C@@H](NC(=O)Oc3ccccc3)CC2)nc2c1CCCC2` [compound 1592]: under setting [4], the class is given as 3 (Class 3 The value of percent of control at 10^−7 M was more than 60% or the value of IC50 was more than 200 nM.).
With `CN(C)c1nc(N[C@H]2CC[C@@H](CNC(=O)c3cc(Cl)sc3Cl)CC2)nc2c1CCCC2` [compound 645], the class under setting [2] is 3 (Class 3 The value of percent of control at 10^−7 M was more than 60% or the value of IC50 was more than 200 nM.).
Turning to `Cc1onc(-c2c(Cl)cccc2Cl)c1C(=O)N[C@H]1CC[C@@H](Nc2cc(N(C)C)c3ccccc3n2)CC1` [compound 134], under setting [3], the class is 1 (Class 1: The value of percent of control at 10^−7 M was less than 40% or the value of IC50 was less than 50 nM.).
`Cc1cc([N+](=O)[O-])ccc1NC(=O)N[C@H]1CC[C@@H](Nc2nc3c(c(N(C)C)n2)CCCC3)CC1` [compound 1714]: the class under setting [2] is recorded as 3 (Class 3 The value of percent of control at 10^−7 M was more than 60% or the value of IC50 was more than 200 nM.).
Turning to `CN(C)c1nc(N[C@H]2CC[C@@H](NC(=O)c3cccc(Cl)c3F)CC2)nc2c1CCCC2` [compound 495], the class under setting [5] is listed as 3 (Class 3 The value of percent of control at 10^−7 M was more than 60% or the value of IC50 was more than 200 nM.).
Turning to `COC(=O)N[C@H]1CC[C@@H](Nc2cc(N(C)C)c3ccccc3n2)CC1` [compound 1555], under setting [4], the class was 3 (Class 3 The value of percent of control at 10^−7 M was more than 60% or the value of IC50 was more than 200 nM.).
In the case of `CN(C)c1nc(N[C@H]2CC[C@@H](NC(=S)Nc3cc(C(F)(F)F)cc(C(F)(F)F)c3)CC2)nc2c1CCCC2` [compound 1927], under setting [3], the class was 3 (Class 3 The value of percent of control at 10^−7 M was more than 60% or the value of IC50 was more than 200 nM.).
For the molecule `COc1cccc(CNC[C@H]2CC[C@@H](Nc3nc4c(c(N(C)C)n3)CCCC4)CC2)c1O` [compound 1438], the class under setting [2] is reported as 3 (Class 3 The value of percent of control at 10^−7 M was more than 60% or the value of IC50 was more than 200 nM.).
Take `COc1cc(Cl)ccc1CNC[C@H]1CC[C@@H](Nc2nccc(N(C)C)n2)CC1` [compound 1536]: the class under setting [4] is reported as 3 (Class 3 The value of percent of control at 10^−7 M was more than 60% or the value of IC50 was more than 200 nM.).
